Read-outs that look alike come from different tables or passages of the source.
Legend:
[1] = FIG. 49, cited from earlier work
[2] = Porcine Pharmacokinetic Study (FIG. 50): sumatriptan in blood serum after delivery from the fluid delivery apparatus; type: in vivo, Yorkshire pigs; settings: 20 mg dose from the fluid delivery apparatus (microneedles), pig; actual profile FIG. 50 compared with nasal, oral and Zecuity (FIG. 49)
Method: In reference to FIG. 50, shown is the time versus concentration profile of sumatriptan as administered according to the methods and devices disclosed herein. An ideal profile (identified as “Target PK Profile”) is calculated based on the therapeutic efficiency of the medicament.
Thirty five 80 kg castrated or female Yorkshire pigs were placed under anesthesia and a catheter was inserted into the right or left jugular vein. After the catheter was placed, the pigs were kept under anesthesia and placed on their backs. The ventral region was shaved and covered with a depilatory cream (Nair Sensitive®) for 8 minutes. The cream was removed and the area washed with alcohol. The fluid delivery apparatus was placed against the skin with an adhesive and the microneedles (100 total) were inserted at a post traveling velocity of 6 m/s. A 20 mg dose of sumatriptan from the fluid deliver apparatus was delivered while the pig was under anesthesia. 3 mL blood samples were withdrawn at each time point and spun down to recover the blood serum.

[3] = nasal administration, compared with actual profile of the fluid delivery apparatus (FIG. 50)
[4] = subcutaneous administration, compared with the other routes of administration

CNS(=O)(=O)Cc1ccc2[nH]cc(CCN(C)C)c2c1.O=C(O)CCC(=O)O [sumatriptan, 1-[3-[2-(dimethylamino)ethyl]-1H-indol-5-yl]-N-methylmethanesulfonamide butanedioic acid]
AUC [1, 3]: significantly lower
Css [1, 3]: significantly lower
Tmax ([1]; oral administration, compared with actual profile of the fluid delivery apparatus (FIG. 50)): much slower
Css ([1]; subcutaneous administration): significantly lower as time progresses
Cmax [1, 4]: higher
Tmax [1, 4]: much faster
AUC [2]: significantly improved
Css [2]: significantly improved
Tmax [2]: significantly improved

— patent US11344709B2, “Fluid delivery apparatus having a controller assembly and method of use” (SORRENTO THERAPEUTICS, INC., priority 2016, dated 2022)
